# Data reported in US20250064794A1, “A THERAPEUTIC COMBINATION COMPRISING A TIGIT ANTAGONIST, A PD-1 ANTAGONIST, AND LENVATINIB” (EISAI R&D MANAGEMENT CO., LTD., priority 2021, published 2025).
# Columns and labels:
# CT26 tumor = assay: Anti-tumor efficacy in CT26 tumor model; type: in vivo, female BALB/c mice
# Text: The present Example describes anti-tumor effects of a combination of a TIGIT antagonist, a PD-1 antagonist and lenvatinib using a CT26 tumor model.
# Prior to treatment initiation, female BALB/c mice aged 8 weeks weighing between 18 to 21 grams were anesthetized and subcutaneously injected into the rear flank with 0.3×10^6 CT26 log-phase sub-confluent cells. When the mean tumor volume of inoculated animals with CT26 reached approximately 146 mm^3 (13 days later) mice were pair-matched into 8 treatment groups consisting of 10 mice per group.
# Antibody Reagents in this Example Include: • Anti-PD-1 mIgG1 antibody, which is a murinized version of a rat anti-mouse PDT Ab with a mouse IgG1 Fe; • Anti-TIGIT mIgG2a antibody having a mouse Fe region of mIgG2a subtype that is the murine counterpart isotype to human isotype IgG1; • Isotype mIgG1 antibody, which is a mouse IgG1 isotype-matched control monoclonal antibody specific for adenoviral hexon 25; and • Isotype mIgG2a antibody, which is a mouse IgG2a isotype-matched control monoclonal antibody specific for adenoviral hexon 25.
# • 1) 0.5% methylcellulose (Vehicle)+isotype mIgG1 antibody+isotype mIgG2a antibody; • 2) Vehicle+anti-PD-1 mIgG1 antibody+isotype mIgG1 antibody; • 3) Vehicle+isotype mIgG1 antibody+anti-TIGIT mIgG2a antibody; • 4) Lenvatinib+isotype mIgG1 antibody+isotype mIgG2a antibody; • 5) Vehicle+anti-PD-1 mIgG1 antibody+anti-TIGIT mIgG2a antibody; • 6) Lenvatinib+anti-PD-1 mIgG1 antibody+isotype mIgG2a antibody; • 7) Lenvatinib+isotype mIgG1 antibody+anti-TIGIT mIgG2a antibody; and • 8) Lenvatinib+anti-PD-1 mIgG1 antibody+anti-TIGIT mIgG2a antibody.
# Vehicle and lenvatinib were orally gavage-dosed once daily (QD) at 10 mg/kg body weight. Isotype control, a mouse monoclonal antibody specific for adenoviral hexon on IgG1 or IgG2a backbones, as well as anti-PD-1 and anti-TIGIT antibodies were dosed intraperitoneally every 5 days at 10 mg/kg body weight. Start of treatments was considered Day 0 and dosing based on described schedules continued as described until Day 40. […]
# [1] = in vivo; cited from earlier work
# [2] = Day 40, 10 mice per group, lenvatinib 10 mg/kg QD, antibodies 10 mg/kg IP every 5 days
smiles,measurement,setting,value
"COc1cc2nccc(Oc3ccc(NC(=O)NC4CC4)c(Cl)c3)c2cc1C(N)=O [Lenvatinib monotherapy, 4-[3-chloro-4-(cyclopropylaminocarbonyl)aminophenoxy]-7-methoxy-6-quinolinecarboxamide]",TGI at Day 12,"CT26 tumor; CT26 s.c. tumors, treatment started at 146 mm^3, lenvatinib 10 mg/kg orally QD, antibodies 10 mg/kg intraperitoneally every 5 days, vs Vehicle group at Day 12",36% (p = 0.014)
same,End of study CRs (complete tumor regressions),CT26 tumor; [2],"0 CRs, 0 PRs"
same,End of study PRs (partial tumor regressions),CT26 tumor; [2],"0 CRs, 0 PRs"
same,half-life,[1],28 h
